Results on four compounds are retold here after patent US20230248695A1, “COMBINATIONS OF CANCER THERAPEUTICS” (Merck Patent GmbH, priority 2020, published 2023).

“Also recorded” adds a separate entry of the source.

In data set [1] the test system is RCC patient derived xenografts (PDX). The data set can be described thus: In vivo efficacy in sixteen RCC patient derived tumor xenograft models (PDX). Details: species or system female NMRI nu/nu mice (human tumor xenografts). The note with it: 16 s.c. RCC PDX models, n = 5 per group; p.o. up to 70 days; Compound A 100 mg/kg QD, axitinib 4 mg/kg BID, cabozantinib 10 mg/kg QD; progression = RTV 173%.
Method: All experiments and protocols were approved by animal welfare body and local authorities, and were conducted according to all applicable international, national and local laws and guidelines. Only animals with unobjectionable health were selected to enter testing procedures. The animals (female NMRI nu/nu mice (NMRI-Foxn1^nu); Envigo RMS GmbH, Netherlands) were delivered at the age of four to six weeks and were used for experiments after at least one week of acclimatization. Animals were arbitrarily numbered during tumor implantation using radio frequency identification transponders. Each cage was labeled with a record card indicating all relevant experimental details.
The tumor xenografts were derived from surgical specimens from human cancer patients. Following excision at surgery, tumor pieces were subcutaneously implanted into immunodeficient mice and are therefore referred to as patient-derived tumor xenografts (PDX). Establishment and characterization of the PDXs was performed following their primary implantation into immunodeficient mice (passage 1). The tumor xenografts were passaged until establishment of a stable growth pattern.
Axitinib: A dosing solution of 0.4 mg/ml for dosing at 4 mg/kg/dose was prepared daily by dissolving 6.4 mg dry matter in 16 ml vehicle and stirring for at least 30 min. If necessary, the solution was sonicated for 2 min.
Cabozantinib: A dosing solution of 1 mg/ml for dosing at 10 mg/kg/dose was prepared directly before administration by slowly adding 0.2 ml 100% propylene glycol to 12 mg cabozantinib. It was stirred vigorously on a magnetic stirrer until a fine suspension with clumps formed, followed by vortexing briefly for 15-20 s. A further 3.4 ml propylene glycol was added and the stirring and vortexing steps were repeated. Then 600 µl 100% Tween 80 was added while stirring continuously followed by vortexing briefly for 15-20 s. The solution was then sonicated for 10 min and 7.8 ml D5W was added while stirring slowly. At this stage the solution was clear with lots of air bubbles. Care was taken to exclude these when drawing the suspension into a syringe for administration of therapy.
The resulting white suspension was stirred for two hours on a magnetic stirrer with a hot plate (Phoenix Instruments, model RSM-10HS) at 50° C. The suspension was brought to room temperature and mixed well each time before transferring to a syringe for dosing.
Tumor cell inoculation: Tumor fragments were obtained from xenografts in serial passage in nude mice. After removal from donor mice, tumors were cut into fragments (3-4 mm edge length) and placed in PBS containing 10% penicillin/streptomycin. Recipient animals were anesthetized by inhalation of isoflurane and received unilateral or bilateral tumor implants subcutaneously in the flank.
Randomization: Animals and tumor implants were monitored daily until solid tumor growth was detectable in a sufficient number of animals. At randomization, the volume of growing tumors was determined. […] Animals not used for experiments where available were used as satellite animals for PD sampling. The day of randomization was designated as day 0 of the experiment. The time from implantation to randomization at a standard tumor volume is expressed in days as “Induction time (IT)”. Induction times of tumors are routinely recorded, and a median IT is calculated for characterization purposes.
Tumor measurements and calculations: Tumor length (L) and width (W) were measured twice weekly by calipers. The tumor volume was calculated using the formula L×W^2/2. Relative volumes of individual tumors (individual RTVs) for Day x were calculated by dividing the absolute individual tumor volume on Day x (Tx) by the absolute individual tumor volume of the same tumor on the day of randomization (Tr) multiplied by 100%.

The conditions of data set [2]: clinical trials; cited from earlier work.

For the compound `CNC(=O)c1ccccc1Sc1ccc2c(/C=C/c3ccccn3)n[nH]c2c1` [axitinib, N-methyl-2-({3-[(1E)-2-(pyridin-2-yl)ethenyl]-1H-indazol-6-yl}sulfanyl)benzamide], the “tumor growth / tumor progression under monotherapy treatment” value (shortened to “tumor growth / tumor progression”) in data set [1] is “progressed under monotherapy treatment; also recorded: did not strongly inhibit tumor growth, and tumors progressed under treatment”.

Turning to `O=C(NCc1cc(F)cc(F)c1)[C@@]1(O)CCN(c2ccc3[nH]ccc3c2)C1=O` [Compound A, (S)-3-Hydroxy-1-(1H-indol-5-yl)-2-oxo-pyrrolidine-3-carboxylic acid 3,5-difluoro-benzylamide], the “tumor growth / tumor progression” value in data set [1] was “progressed under monotherapy treatment; also recorded: did not strongly inhibit tumor growth, and tumors progressed under treatment”.

On to `CO[C@@H]1[C@H](OC(=O)/C=C/C=C/C=C/C=C/C(=O)O)CC[C@]2(CO2)[C@H]1[C@@]1(C)O[C@@H]1CC=C(C)C` [fumagillin], for which, in data set [2], the neurotoxicity result is given as “pronounced neurotoxicity”.

Consider `COc1cc2nccc(Oc3ccc(NC(=O)C4(C(=O)Nc5ccc(F)cc5)CC4)cc3)c2cc1OC` [cabozantinib, N-{4-[(6,7-dimethoxyquinolin-4-yl)oxy]phenyl}-N′-(4-fluorophenyl)cyclopropane-1,1-dicarboxamide], for which the “tumor growth / tumor progression” value in data set [1] was “progressed under monotherapy treatment; also recorded: did not strongly inhibit tumor growth, and tumors progressed under treatment”.
